Assay results published in patent publication US12180187B2, “1-phenyl-5-azinylpyrazolyl-3-oxyalkyl acids and their use for controlling unwanted plant growth” (BAYER AKTIENGESELLSCHAFT, priority 2019, dated 2024).

Key:
MATIN [1] = test: Pre-emergence action at 320 g/ha against MATIN; type: in vivo, Tripleurospermum inodorum (Matricaria inodora); conditions: visual scoring after about 3 weeks vs untreated controls
Outline: (§1)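 Pre-emergence soil-surface spray: WP or EC formulation, aqueous, 0.5% additive, 600 l/ha water volume. Greenhouse growth about 3 weeks; visual percent effect relative to untreated pots.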

MATIN [2] = test: Post-emergence action against MATIN, 1.28 kg/ha; type: in vivo, Tripleurospermum inodorum (Matricaria inodora); conditions: dosage 1280 g/ha, visual rating about 3 weeks after treatment vs untreated controls (100% = plants died)
Outline: (§2)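 Percent activity was scored visually ~3 wk post-spray relative to untreated plants. Treatment was post-emergence at the one-leaf stage using WP/EC in water with 0.5% additive (600 L/ha).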

DIGSA [3] = test: Pre-emergence action at 320 g/ha against DIGSA; type: in vivo, Digitaria sanguinalis; conditions: visual scoring after about 3 weeks vs untreated controls
Outline: as §1

STEME = test: Pre-emergence action against STEME, 1280 g/ha; type: in vivo, Stellaria media; conditions: scored visually after about 3 weeks vs untreated controls (100% = plants have died)
Outline: (§3)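 Soil-surface application after sowing, before emergence: WP or EC formulations in water with 0.5% additive, 600 litres per hectare, onto sandy loam pots. Damage rated visually in % relative to untreated plants after roughly 3 weeks in a greenhouse.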

VERPE = test: Pre-emergence action at 320 g/ha against VERPE; type: in vivo, Veronica persica; conditions: visual scoring after about 3 weeks vs untreated controls
Outline: as §1

SETVI [4] = test: Pre-emergence action against SETVI, 1280 g/ha; type: in vivo, Setaria viridis; conditions: visual scoring after about 3 weeks vs untreated controls, 100% = plants have died, 0% = like control plants
Outline: as §3

AMARE [5] = test: Pre-emergence action at 320 g/ha against AMARE; type: in vivo, Amaranthus retroflexus; conditions: visual scoring after about 3 weeks vs untreated controls
Outline: as §1

POAAN [6] = test: Pre-emergence action against POAAN, 1280 g/ha; type: in vivo, Poa annua; conditions: visual scoring after about 3 weeks vs untreated controls, 100% = plants have died, 0% = like control plants
Outline: as §3

AMARE [7] = test: Pre-emergence action against AMARE, 1280 g/ha; type: in vivo, Amaranthus retroflexus; conditions: scored visually after about 3 weeks vs untreated controls (100% = plants have died)
Outline: as §3

POLCO = test: Pre-emergence action at 320 g/ha against POLCO; type: in vivo, Fallopia convolvulus (Polygonum convolvulus); conditions: visual scoring after about 3 weeks vs untreated controls
Outline: as §1

SETVI [8] = test: Pre-emergence action at 320 g/ha against SETVI; type: in vivo, Setaria viridis; conditions: visual scoring after about 3 weeks vs untreated controls
Outline: as §1

DIGSA [9] = test: Post-emergence action against DIGSA, 1.28 kg/ha; type: in vivo, Digitaria sanguinalis; conditions: dosage 1280 g/ha, visual rating about 3 weeks after treatment vs untreated controls
Outline: as §2

POAAN [10] = test: Post-emergence action against POAAN, 1.28 kg/ha; type: in vivo, Poa annua; conditions: dosage 1280 g/ha, visual rating about 3 weeks after treatment vs untreated controls
Outline: as §2

ALOMY = test: Pre-emergence action at 320 g/ha against ALOMY; type: in vivo, Alopecurus myosuroides; conditions: scored visually after about 3 weeks vs untreated controls (100% = plants have died)
Outline: as §1

MATIN [11] = test: Pre-emergence action against MATIN, 1280 g/ha; type: in vivo, Tripleurospermum inodorum (Matricaria inodora); conditions: scored visually after about 3 weeks vs untreated controls (100% = plants have died)
Outline: as §3

ECHCG = test: Pre-emergence action against ECHCG, 1280 g/ha; type: in vivo, Echinochloa crus-galli; conditions: visual scoring after about 3 weeks vs untreated controls, 100% = plants have died, 0% = like control plants
Outline: as §3

SMILES	Pre-emergence action against MATIN in % (MATIN [1]) [%]	Post-emergence action against MATIN (MATIN [2]) [%]	Pre-emergence action against DIGSA in % (DIGSA [3]) [%]	Pre-emergence action against STEME (STEME) [%]	Pre-emergence action against VERPE in % (VERPE) [%]	Pre-emergence action against SETVI (SETVI [4]) [%]	Pre-emergence action against AMARE in % (AMARE [5]) [%]	Pre-emergence action against POAAN (POAAN [6]) [%]	Pre-emergence action against AMARE (AMARE [7]) [%]	Pre-emergence action against POLCO in % (POLCO) [%]	Pre-emergence action against SETVI in % (SETVI [8]) [%]	Post-emergence action against DIGSA (DIGSA [9]) [%]	Post-emergence action against POAAN (POAAN [10]) [%]	Pre-emergence action at 320 g/ha against ALOMY in % (ALOMY) [%]	Pre-emergence action against MATIN (MATIN [11]) [%]	Pre-emergence action against ECHCG (ECHCG) [%]
CCOC(=O)COc1nn(-c2ccccc2F)c(-c2cncc(F)c2)c1Br [VII-015]	100	100	100	100	100	100	100	100	100	100	100	100	100	100	100	100
CCOC(=O)COc1nn(-c2ccccc2F)c(-c2ccc(F)nc2)c1C(F)(F)F [VII-010]	100	90	100	100	100	100	100	100	100	90	100	100	100	100	90	100
COC(=O)CCOC(=O)COc1nn(-c2ccccc2F)c(-c2ccc(F)nc2)c1Br [VII-111]	90	100	100	100	100	100	100	100	100	90	100	100	100	100	100	100
COC(=O)C(C)Oc1nn(-c2ccccc2)c(-c2cccnc2)c1Cl (centres unmarked) [VII-032]	90	90	90	100	100	100	100	100	100	90	90	90	100	100	90	100
COC(=O)COc1nn(-c2ccccc2F)c(-c2ccc(F)nc2)c1C(F)(F)F [VII-031]	100	100	100	100	100	100	100	100	100	100	100	100	100	100	100	90
CCC(Oc1nn(-c2ccccc2F)c(-c2ccc(F)nc2)c1Br)C(=O)OC (centres unmarked) [VII-029]	90	–	100	100	100	100	100	100	100	100	90	100	100	90	100	100
COC(=O)CNC(=O)COc1nn(-c2ccccc2F)c(-c2ccc(F)nc2)c1Br [Example X-002]	100	–	100	100	100	100	100	100	100	100	100	100	100	100	90	90
COC(=O)[C@@H](C)Oc1nn(-c2cc(F)ccc2F)c(-c2ccc(F)nc2)c1Br [VII-062]	100	–	100	100	100	100	100	100	100	100	100	100	100	100	100	100
